Patent US20230091221A1, “PHARMACEUTICAL COMPOSITION” (Chugai Seiyaku Kabushiki Kaisha, priority 2017, published 2023)

Columns and labels:
Format in all cases: in vivo
[1] = tested on: CD8-positive T cells in peripheral blood; experiment: Number of CD8-positive T cells in peripheral blood in FM3A syngeneic mouse model (flow cytometry); details: day 8; irinotecan 250 mg/kg ip once; P<0.05, Wilcoxon Signed-Rank Test
Procedure: On day 8 of administration, peripheral blood was collected, CD8-positive T cells were measured by flow cytometry (FIG. 2).

[2] = tested on: CD8-positive T cells in tumor; experiment: CD8, CD69 or Ki-67-positive tumor-infiltrating lymphocytes in FM3A syngeneic mouse model (flow cytometry); details: day 8, irinotecan 250 mg/kg ip once
From the text: On day 8 of administration, tumors were collected, and then cells were dissociated using a gentleMACS (Trademark) Octo Dissociator, washed, and then used for flow cytometry, thereby quantitatively determining CD8, CD69 or Ki-67-positive tumor-infiltrating lymphocytes (TIL) (FIG. 3).

[3] = tested on: Foxp3-positive CD4-positive regulatory T cells in tumor; experiment: Foxp3-positive CD4-positive regulatory T cells in tumor in FM3A syngeneic mouse model (flow cytometry); details: day 8; irinotecan 250 mg/kg ip once
From the text: On day 8 of administration, tumors were collected, and then cells were dissociated using a gentleMACS (Trademark) Octo Dissociator, washed, and then used for flow cytometry, thereby measuring Foxp3-positive CD4-positive regulatory T cells by flow cytometry (FIG. 4).

SMILES: CCc1c2c(nc3ccc(OC(=O)N4CCC(N5CCCCC5)CC4)cc13)-c1cc3c(c(=O)n1C2)COC(=O)[C@]3(O)CC [irinotecan]
- number of CD8-positive T cells in peripheral blood versus solvent administration group [1]: significantly lower
- CD8-positive T cells in lymph nodes compared with the solvent administration group (FIG. 3A) [2]: not found to exhibit any significant decrease
- CD69-positive CD8-positive T cells among tumor cells compared with the solvent administration group (FIG. 3B) [2]: not found to exhibit any significant decrease
- Ki-67-positive CD8-positive T cells in tumors compared with the solvent administration group (FIG. 3C) ([2]; 10F.9G2 10 mg/kg ip 3 times a week): significant increases
- Foxp3-positive CD4-positive regulatory T cells in tumors versus solvent administration group [3]: significantly lower
